The values below come from patent US9872495B2, “Peptoid oligomers, pharmaceutical compositions and methods of using the same” (priority 2009, dated 2018).

Format in all cases: cell-based
The subject of series [1] is Bacillus subtilis ATCC 6633. The procedure: (§1) Antimicrobial activity was tested against the gram-negative strain Escherichia coli ATCC 25922, and […] strains Staphylococcus aureus ATCC 25923, and Bacillus subtilis ATCC 6633, according to the guidelines given in the document […]-A7 of the CLSI (Clinical and Laboratory Standards Institute; Clinical and Laboratory Standards Institute. Methods for Dilution Antimicrobial Susceptibility Tests for Bacteria That Grow Aerobically-Seventh Edition: Approved Standard CLSI document […]-A7. CLSI, Wayne, USA, 2006). This reference is incorporated herein in its entirety. Hemolytic activity was tested against fresh human erythrocytes.

In series [2] the test system is Escherichia coli ATCC 25922. The procedure: as §1
Series [3] concerns Staphylococcus aureus ATCC 25923. The procedure:
as §1

Another series concerns fresh human erythrocytes. Briefly: Hemolytic activity. The procedure:
Typically, toxicity is evaluated by hemolytic concentration50 (HC50), which measures the concentration of antimicrobial agents at which 50% of the erythrocytes in the culture are lysed. Significant hemolysis, as evaluated by HC50, was detectable only for peptide gramicidin S (40 μg/mL). […] In order to test hemolytic activity of peptoid oligomers further, more stringent parameters were used. Instead of HC50, hemolytic concentration10 (HC10) was used to evaluate hemolytic activity of peptoids used in this study. HC10 represents the concentration of antimicrobial agents where 10% of erythrocytes are lysed. HC10 values were detectable for only four peptoid oligomers. […] Antimicrobial activity was tested against the gram-negative strain Escherichia coli ATCC 25922, and […] strains Staphylococcus aureus ATCC 25923, and Bacillus subtilis ATCC 6633, according to the guidelines given in the document […]-A7 of the CLSI (Clinical and Laboratory Standards Institute; Clinical and Laboratory Standards Institute. Methods for Dilution Antimicrobial Susceptibility Tests for Bacteria That Grow Aerobically-Seventh Edition: Approved Standard CLSI document […]-A7. CLSI, Wayne, USA, 2006). This reference is incorporated herein in its entirety. Hemolytic activity was tested against fresh human erythrocytes.

Each structure is given as a SMILES string. Converted amounts (≈) assume the structure as drawn. Read-outs that look alike come from different tables or passages of the source. Numbered stars: 1 amine (or outer) side, 2 acyl side, 3 side chain; on linkers, the order of the positions; unused ones are H or OH. Square brackets hold non-standard residues; d marks the D form. Peptide text beside a SMILES is read from it. X1 = O=C(CN(CC(c1ccccc1)c1ccccc1)[*:1])[*:2]; Gly(N(CH2)3NH2) = NCCCNCC(=O)O; NhArg = N=C(N)NCCCCNCC(=O)O; N(iPr)Gly = CC(C)NCC(=O)O; Nphe = O=C(O)CNCc1ccccc1; Nleu = CC(C)CNCC(=O)O

As for `NCCCN1CC(=O)N(CCCN)CC(=O)N(Cc2ccccc2)CC(=O)N(CCCN)CC(=O)N(Cc2ccccc2)CC(=O)N(CCCN)CC1=O` [Compound 22, C(NapNpm)2Nap2] (cyclo([Nphe][Gly(N(CH2)3NH2)][Nphe][Gly(N(CH2)3NH2)][Gly(N(CH2)3NH2)][Gly(N(CH2)3NH2)])), the “MIC B. sub” value in series [1] (ATCC 6633) is more than 500 µg/mL. Besides, the “MIC E. coli” value in series [2] (ATCC 25922) is more than 500 µg/mL. In series [3] (ATCC 25923), the “MIC S. aureus” value is more than 500 µg/mL. Further, in the series on fresh human erythrocytes (red cells of human), the “HC10 (concentration where 10% hemolysis is observed)” value was more than 250 µg/mL and the “HC50 (concentration where 50% hemolysis is observed)” value is more than 250 µg/mL.
As for `NCCCN1CC(=O)N(Cc2ccccc2)CC(=O)N(CCCN)CC(=O)N(Cc2ccccc2)CC(=O)N(CCCN)CC(=O)N(Cc2ccccc2)CC1=O` [Compound 23, C(NapNpm)3] (cyclo([Nphe][Gly(N(CH2)3NH2)][Nphe][Gly(N(CH2)3NH2)][Nphe][Gly(N(CH2)3NH2)])), the “MIC B. sub” value in series [1] (ATCC 6633) worked out at 500 µg/mL (≈ 638 µM). Further, in series [2] (ATCC 25922), the “MIC E. coli” value is more than 500 µg/mL. Further, the “MIC S. aureus” value in series [3] (ATCC 25923) was found to be 500 µg/mL (≈ 638 µM). In the series with fresh human erythrocytes (red cells of human), the “HC10 (concentration where 10% hemolysis is observed)” value was more than 250 µg/mL and the “HC50 (concentration where 50% hemolysis is observed)” value was more than 250 µg/mL.
Regarding `NCCCN1CC(=O)N(Cc2ccccc2)CC(=O)N(CCCN)CC(=O)N(Cc2ccccc2)CC(=O)N(CCCN)CC(=O)N(Cc2ccccc2)CC(=O)N(CCCN)CC(=O)N(Cc2ccccc2)CC1=O` [Compound 24, C(NapNpm)4] (cyclo([Nphe][Gly(N(CH2)3NH2)][Nphe][Gly(N(CH2)3NH2)][Nphe][Gly(N(CH2)3NH2)][Nphe][Gly(N(CH2)3NH2)])), the “MIC B. sub” value in series [1] (ATCC 6633) is 2 µg/mL (≈ 1.91 µM). Besides, in series [2] (ATCC 25922), the “MIC E. coli” value came out at 31.3 µg/mL (≈ 29.9 µM). In addition, the “MIC S. aureus” value in series [3] (ATCC 25923) came out at 31.3 µg/mL (≈ 29.9 µM). For the same molecule, the “non-hemolytic up to (concentration)” value in the series with fresh human erythrocytes is not below 250 µg/mL. Also, in the series with fresh human erythrocytes (red cells of human), the “HC10 (concentration where 10% hemolysis is observed)” value is more than 250 µg/mL and the “HC50 (concentration where 50% hemolysis is observed)” value was more than 250 µg/mL.
Take `NCCCN1CC(=O)N(Cc2ccccc2)CC(=O)N(CCCN)CC(=O)N(Cc2ccccc2)CC(=O)N(CCCN)CC(=O)N(Cc2ccccc2)CC(=O)N(CCCN)CC(=O)N(Cc2ccccc2)CC(=O)N(CCCN)CC(=O)N(Cc2ccccc2)CC1=O` [Compound 25, C(NapNpm)5] (cyclo([Nphe][Gly(N(CH2)3NH2)][Nphe][Gly(N(CH2)3NH2)][Nphe][Gly(N(CH2)3NH2)][Nphe][Gly(N(CH2)3NH2)][Nphe][Gly(N(CH2)3NH2)])): the “MIC B. sub” value in series [1] (ATCC 6633) worked out at 0.5 µg/mL (≈ 0.383 µM). Besides, the “MIC E. coli” value in series [2] (ATCC 25922) is 7.8 µg/mL (≈ 5.97 µM). In addition, the “MIC S. aureus” value in series [3] (ATCC 25923) was determined as 7.8 µg/mL (≈ 5.97 µM). In the series with fresh human erythrocytes, the “non-hemolytic up to (concentration)” value was not below 250 µg/mL. In addition, in the series with fresh human erythrocytes (red cells of human), the “HC10 (concentration where 10% hemolysis is observed)” value was more than 250 µg/mL and the “HC50 (concentration where 50% hemolysis is observed)” value is more than 250 µg/mL.
Regarding `NCCCN1CC(=O)N(Cc2ccccc2)CC(=O)N(Cc2ccccc2)CC(=O)N(Cc2ccccc2)CC(=O)N(CCCN)CC(=O)N(Cc2ccccc2)CC1=O` [Compound 26, C(NpmNap)2Npm2] (cyclo([Nphe][Nphe][Nphe][Gly(N(CH2)3NH2)][Nphe][Gly(N(CH2)3NH2)])), the “MIC B. sub” value in series [1] (ATCC 6633) was found to be 15.6 µg/mL (≈ 19.1 µM). Besides, the “MIC E. coli” value in series [2] (ATCC 25922) came out at 500 µg/mL (≈ 612 µM). In series [3] (ATCC 25923), the “MIC S. aureus” value is 500 µg/mL (≈ 612 µM). In the series on fresh human erythrocytes (red cells of human), the “HC10 (concentration where 10% hemolysis is observed)” value is more than 250 µg/mL and the “HC50 (concentration where 50% hemolysis is observed)” value is more than 250 µg/mL.
Consider `CC(C)CN1CC(=O)N(Cc2ccccc2)CC(=O)N2CCC[C@H]2C(=O)N(C(C)C)CC(=O)N(CCCN)CC(=O)N(CC(C)C)CC(=O)N(Cc2ccccc2)CC(=O)N2CCC[C@H]2C(=O)N(C(C)C)CC(=O)N(CCCN)CC1=O` [Compound 27, C(NipNapNibNpmPro)2] (cyclo([Nleu][Nphe]P[N(iPr)Gly][Gly(N(CH2)3NH2)][Nleu][Nphe]P[N(iPr)Gly][Gly(N(CH2)3NH2)])), for which the “MIC B. sub” value in series [1] (B. subtilis ATCC 6633) is more than 500 µg/mL. Moreover, the “MIC E. coli” value in series [2] (E. coli ATCC 25922) was more than 500 µg/mL. Further, the “MIC S. aureus” value in series [3] (S. aureus ATCC 25923) is more than 500 µg/mL. Besides, in the series on fresh human erythrocytes (fresh human erythrocytes), the “HC10 (concentration where 10% hemolysis is observed)” value is more than 250 µg/mL and the “HC50 (concentration where 50% hemolysis is observed)” value is more than 250 µg/mL.
For `CC(C)CN1CC(=O)N(CCCCNC(=N)N)CC(=O)N(C(C)C)CC(=O)N2CCC[C@H]2C(=O)N(CC(c2ccccc2)c2ccccc2)CC(=O)N(CC(C)C)CC(=O)N(CCCCNC(=N)N)CC(=O)N(C(C)C)CC(=O)N2CCC[C@H]2C(=O)N(CC(c2ccccc2)c2ccccc2)CC1=O` [Compound 28, C(NdpNibNgbNipPro)2] (cyclo([Nleu][NhArg][N(iPr)Gly]P[X1][Nleu][NhArg][N(iPr)Gly]P[X1])), in series [1] (ATCC 6633), the “MIC B. sub” value is 62.5 µg/mL (≈ 43.6 µM). For the same molecule, the “MIC E. coli” value in series [2] (ATCC 25922) stood at 31.3 µg/mL (≈ 21.8 µM). Also, the “MIC S. aureus” value in series [3] (ATCC 25923) came to 62.5 µg/mL (≈ 43.6 µM). For the same molecule, in the series on fresh human erythrocytes (red cells of human), the “HC10 (concentration where 10% hemolysis is observed)” value is more than 250 µg/mL and the “HC50 (concentration where 50% hemolysis is observed)” value was more than 250 µg/mL.
